# Assay results from patent publication US6647980B1, “Method for administration of active substances to the olfactory region” (priority 1997, dated 2003).
# Assay: Dynamic viscosity, Brookfield Digital Viscometer
# Assay type: physicochemical
# Details: dye preparation
# Description: The viscosity of the preparations were determined by means of a Brookfield Digital Viscometer, model DV-I+, version 2.0, at 25° after stabilisation for 30 min.
substance,measurement,setting,value
brilliant blue dye,Viscosity (cP),NaCMC conc. 0 (water),1 (water) cP
same,Viscosity (cP),"NaCMC conc. 0.2 (w/v), with Tween 40 and methyl paraoxybenzoate",22.0 cP
same,Viscosity (cP),"NaCMC conc. 0.5 (w/v), with Tween 40 and methyl paraoxybenzoate",85.2 cP
